According to PubChem BioAssay (NCI):
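Results reflect a 48-hour exposure of cells in 96-well plates to compound at five concentrations. TGI marks complete inhibition of growth.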

Experiments:
Assay in all cases: DTP human tumour cell line panel, 48 h
A549 NSCLC = tested on: A549 NSCLC
ACHN renal = tested on: ACHN renal
CAKI-1 renal = tested on: CAKI-1 renal
EKVX NSCLC = tested on: EKVX NSCLC
MCF7 breast = tested on: MCF7 breast
MDA-MB-435 = tested on: MDA-MB-435
SK-MEL-5 melanoma = tested on: SK-MEL-5 melanoma
SK-OV-3 ovarian = tested on: SK-OV-3 ovarian
SR leukemia = tested on: SR leukemia
T-47D breast = tested on: T-47D breast

Structure (SMILES)	TGI (A549 NSCLC) [µM]	TGI (ACHN renal) [µM]	TGI (CAKI-1 renal) [µM]	TGI (EKVX NSCLC) [µM]	TGI (MCF7 breast) [µM]	TGI (MDA-MB-435) [µM]	TGI (SK-MEL-5 melanoma) [µM]	TGI (SK-OV-3 ovarian) [µM]	TGI (SR leukemia) [µM]	TGI (T-47D breast) [µM]
CC(NC(=O)Cc1ccccc1)NC(=O)C(C)C(=O)Nc1ccccc1 (stereo not drawn)	> 100	> 100	> 100	> 100	> 100	> 100	> 100	> 100	> 100	> 100
CC1=CCC([C@@](C)(O)CCCC(C)(C)N=C=S)CC1 (stereo partly drawn)	34.2	30.5		32.5	34.6	31	29.2	32.9	41.7	44.2
CC(c1ccccc1)N1CCN(C(C)c2ccccc2)CC1 (stereo not drawn)	> 100	> 100	> 100	> 100		> 100	35.7		> 100	> 100
Nc1ccc(N=Nc2c(S(=O)(=O)O)cc3ccccc3c2S(=O)(=O)O)cc1	> 100	> 100	> 100	> 100		> 100	> 100		> 100	> 100
COc1ccc(C2c3cn[nH]c3CC3CCCCC32)cc1 (stereo not drawn)	30.9	33.1	27.3		32.8	40.4	29.1		57.1	19
COC(=O)C(=Cc1cc(OC)c(OC)c(OC)c1-c1cc2c(cc1C1(C)OCCS1)OCO2)C(=O)OC (stereo not drawn)	> 100	> 100	> 100	> 100			> 100	> 100	> 100	
CCCCCC#CCOC(=O)C(=[N+]=[N-])P(=O)(c1ccccc1)c1ccccc1	> 10	> 10		> 10	> 10	> 10	> 10	> 10	> 10	> 10
O=C1NC2c3c(I)sc(I)c3C(O)C2O1 (stereo not drawn)	> 100	> 100	> 100	> 100	> 100	> 100		> 100	> 100	> 100
CCCNc1ncnc2c1ncn2C	> 100	> 100	> 100	> 100	> 100	> 100	> 100	> 100		> 100
S=C1NC2=C(CSC/C2=C\c2cccc(Br)c2)C(c2cccc(Br)c2)N1 (stereo not drawn)	> 100	> 100	> 100	> 100	> 100	> 100	> 100	> 100		> 100
CSc1nc(SC)c2c(C#N)[nH]nc2n1	> 100	> 100	> 100	> 100			> 100	> 100	> 100	
